Test results taken from patent US20050187179A1, “Apoptosis inducing agents and methods” (The Government of the United States of America as …, priority 1998, published 2005).

Columns and labels:
MEL cells [1] = assay: Late apoptotic fraction (sub-G1 peak) and viability of S-oligo treated MEL cells, flow cytometry; assay type: cell-based, mouse
Protocol: (§1) The late apoptotic fraction (sub-G1 peak) in cells treated with Lin-12 sense, antisense and scrambled S-oligos in the presence of HMBA was determined by flow cytometry (FIG. 11B). […] The Lin-12 antisense S-oligo, but not the sense or scrambled control, decreased expression of Notch-1 protein by 50-75% at 48 hours in three experiments. […] Actin expression was also unaffected by a transfected 1100 bp construct in a plasmid, as discussed below in Example 11.
Parental MEL or transfected clones were synchronized for cell cycle analysis experiments by density arrest (Ryan et al., Mol. Cell Biol. 1993, 13:711-719). At this point, cells were plated at 1×10^5 cells/ml in medium containing 5 mM HMBA. For the transfected clones, 700 μg/ml G418 was added to the medium. At 16 hours, cells were harvested, fixed in 1% paraformaldehyde for 15 minutes and then 70% ethanol overnight. Cells were resuspended, at constant cell density, in PI solution (50 μg/ml PI (propidum iodide), 0.1% Triton-X-100, 200 μg/ml RNAase A) for 1 hour at room temperature with mixing. […] The DNA content of cells was determined using a Becton Dickinson FACScan flow cytometer. Cells appearing as a sub-G1 peak were scored as apoptotic. In cell cycle analyses, apoptotic and dead cells were gated out and only the viable population was analyzed.

Notch-1 protein = Notch-1 protein expression in S-oligo treated MEL cells; assay type: cell-based, mouse; conditions: at 48 hours, three experiments
Protocol: as §1
Cell pellets were solubilized in hot 2×SDS sample buffer containing 10% β-ME and analyzed by 4% SDS/PAGE. Proteins were electroblotted to Immobilon P (Millipore) in 10 mM CAPS with 10% methanol at 0.75 A for 5 hours. Notch-1 proteins were detected using a chemiluminescence Western blotting kit (Boehringer Mannheim) according to manufacturer's instructions. Relative band intensities were determined by the Kodak 1-D analysis software.

actin = assay: Actin levels in S-oligo treated MEL cells; assay type: cell-based, mouse; conditions: sense, antisense and scrambled compared
Protocol: as §1

SY5Y cells = assay: SY5Y cell survival with S-oligos and antineoplastic agent (CellTiter 96 AQueous assay); assay type: cell-based, human; conditions: 50 ng/ml agent, S-oligos 25-100 μM, 1 μM RA
Protocol: SY5Y cells, a neuroblastoma cell line (Example 3) were split into 96 well plates and grown in RPMI 1640 with glutamine, 10% FCS and 1 μM RA. At approximately 60% confluence, the phosphorothioate oligonucleotides (S-oligos, antisense, sense and scrambled; see Example 10) at various concentrations (25, 50, 75 and 100 μM) were added. Subsequently, 50 ng/ml of vinblastine (Sigma, St. Louis Mo., V-1377) was added to half of the wells (based on preliminary dose ranging experiments). Cell survival was measured using Promega's CellTiter 96 AQueous assay, which measures viable cells in the well. Paclitaxel (Sigma, St. Louis Mo., T-1912), another member of the […], was also tested (at 50 ng/ml) using this same assay.

MEL cells [2] = conditions: cited from earlier work; for HG cells, % (% of cells hemoglobinized): Table 3, at optimal concentration; for Opt. [ ], μM (Optimal concentration): Table 3
thymocytes = assay: Apoptosis of thymocytes from Notch-1 antisense transgenic mice after dexamethasone; assay type: cell-based, mouse; conditions: thymocytes of Notch-1 antisense transgenic mice, pharmacologic dose
Excerpt: A pMAMneo plasmid was used which contained the same insert that was used in the pcDNA 3.1 plasmid that was introduced into the MEL cells. This construct expresses the antisense under a MMTV LTR promoter, which has good basal activity and is stimulated by several steroid hormones, such as estradiol, glucocorticoids and androgens. The plasmid was linearized, purified, and microinjected into mouse embryos which were then implanted into surrogate mothers. Pups were screened for the presence of the transgene by PCR on tail snippets. This was done on two separate instances, which generated one positive founder male and one positive founder female containing Notch-1 antisense in their genomes. The founder animals were separately bred into a C57bl6 background for several generations until homozygous positive mice were obtained which bred true (generated all positive litters).
Pharmacological stimuli were used to induce apoptosis more readily in thymocyte cells from these mice.
Thymocytes undergo differentiation in the thymus, and normally express Notch-1. Spontaneous apoptosis levels in thymocytes were not increased, but apoptosis and cell death levels were increased about 50% by a pharmacologic dose of dexamethasone, a steroid used for the treatment of T-cell leukemias which induces rapid terminal differentiation and death in thymocytes. […]

Transformed cells = conditions: Table 2, hybrid polar compounds; cited from earlier work
[3] = test system: MEL murine erythroleukemia cells; design: key: +: Compound induces terminal differentiation of the transformed cells; conditions: terminal differentiation; cited from earlier work
[4] = test system: HL-60 human promyelocytic leukemia cells; design: key: +: Compound induces terminal differentiation of the transformed cells; conditions: terminal differentiation; cited from earlier work
[5] = test system: HT-29 human colon cancer cells; design: key: +: Compound induces terminal differentiation of the transformed cells; conditions: terminal differentiation; cited from earlier work
MEL cells [6] = assay: HMBA-induced MEL cell differentiation, benzidine staining for hemoglobin; assay type: cell-based, mouse; conditions: 5 mM HMBA, at 120 hours
Protocol: Murine erythroleukemia Friend cells (MEL), were maintained in RPMI supplemented with 10% (v/v) heat inactivated fetal bovine serum (HyClone) and 10^−5 M β-mercaptoethanol (β-ME). To induce differentiation, logarithmically growing cells were plated at 1×10^5 cells/ml in medium containing 5 mM HMBA for 120 hours. Cells were passaged to initial density at 72 hours. Cells were assayed for the presence of hemoglobin (Orkin et al., Proc. Natl. Acad. Sci. USA 1975, 72:98-102) by the addition of 1/10 volume of freshly prepared benzidine reagent (0.4% benzidine base, 2% hydrogen peroxide in 12% acetic acid). Benzidine positive cells were counted in modified Neubauer hemocytometers. Each sample was counted by two independent operators, blinded to the cell treatment, and readings were averaged.
The accumulation of differentiated cells, as determined by benzidine staining, was analyzed during the 120 hours of culture with HMBA (FIG. 8C). There was a steady increase in differentiated cells from 48 hours onwards, that generally reached 35-45%, at 120 hours. […] Cultures were not continued beyond 120 hours, because at this time Notch-1 was reproducibly undetectable.

Notch-1 = Notch-1 mRNA and protein expression in MEL cells with HMBA (RT-PCR, western blot); assay type: cell-based, mouse; conditions: 5 mM HMBA, 4 to 120 hours
Protocol: Total RNA was extracted from cells using Trizol reagent (Life Technologies). RT-PCR was performed using the Thermostable Reverse Transcriptase RNA PCR kit (Perkin Elmer) according to manufacturer's instructions. Reactions were amplified in a Perkin Elmer 2400 DNA thermal cycler for 40 cycles of denaturation at 94° C. for 1 minute, annealing and extension at 65° C. for 2 minutes. Amplification of mouse primers specific for Notch-1, SEQ ID NO 1, and SEQ ID NO 2, generated a product of 431 bp. Primers specific for GAPDH: sense 5′ TCACCACCATGGAGAAGG 3′ (SEQ ID NO 3) and antisense 5′ […] 3′ (SEQ ID NO 4) generated a 200 bp product. Negative and positive PCR controls were included in every experiment.
To determine whether Notch-1 expression is regulated during HMBA-induced MEL cell differentiation, Notch-1 mRNA levels were analyzed in MEL cells set up at equal density and maintained in culture for 4, 8, 24 or 120 hours in the absence or presence of HMBA.
Notch-1 steady state protein levels were determined by western blot using the polyclonal antibody to Notch-1 (see Example 2). […] Notch-1 steady state protein levels reflected the Notch-1 mRNA pattern of expression. In the presence of HMBA (H), Notch-1 protein was reproducibly evident in the early stages of induction, but gradually disappeared becoming essentially undetectable at 120 hours. […] In uninduced MEL cells (C). […]

[7] = patients; cited from earlier work
3T3-L1 cells = conditions: Garcés et al. 1997; cited from earlier work

AGACTGCGTGCAGTTCTTCCAGG (all phosphorothioate, sugars by position and methylation of C not given here) [Lin-12 antisense S-oligo, phosphorothioate antisense oligo for the Lin/Notch region of Notch-1]
late apoptotic fraction (sub-G1 peak) (MEL cells [1]; 25 μM S-oligo in the presence of HMBA, 120 hours): significantly larger effect than either sense (SEN) or scrambled (SCR) controls
viability (cells within G1, G2/S or M regions) (MEL cells [1]; S-oligo in the presence of HMBA): parallel decrease in viability
decrease of Notch-1 protein expression (Notch-1 protein): 50-75%
actin levels (actin): No difference in actin levels

CC[C@]1(O)C[C@@H]2CN(CCc3c([nH]c4ccccc34)[C@@](C(=O)OC)(c3cc4c(cc3OC)N(C)[C@H]3[C@@](O)(C(=O)OC)[C@H](OC(C)=O)[C@]5(CC)C=CCN6CC[C@]43[C@@H]65)C2)C1 [vinblastine]
cell survival, antineoplastic agent combined with Notch-1 antisense S-oligos (SY5Y cells): cell survival was decreased to a greater extent

CC(/C=C/C(=O)NO)=C\[C@@H](C)C(=O)c1ccc(N(C)C)cc1 [TSA]
HG cells, % (% of cells hemoglobinized) (MEL cells [2]): 80%
Opt. [ ], μM (Optimal concentration) (MEL cells [2]): 0.075 µM

C[C@@H]1C[C@H]2[C@@H]3CCC4=CC(=O)C=C[C@]4(C)[C@@]3(F)[C@@H](O)C[C@]2(C)[C@@]1(O)C(=O)CO [dexamethasone]
increase of apoptosis and cell death levels (thymocytes): about 50%

CNC(=O)CCCCCCCCC(=O)NC
Opt. [ ], μM (Optimal concentration) (Transformed cells): 5,000 μM
Transformed cells MEL [3]: +
Transformed cells HL-60 [4]: +
Transformed cells HT-29 [5]: +

O=C(/C=C/c1cccc(C(=O)NO)c1)NO [CBHA, m-carboxycinnamic acid bishydroxamide]
HG cells, % (% of cells hemoglobinized) (MEL cells [2]): 73%
Opt. [ ], μM (Optimal concentration) (MEL cells [2]): 4.0 µM

CC(=O)NCCCCCCCCNCC=O
Opt. [ ], μM (Optimal concentration) (Transformed cells): 5,000 μM
Transformed cells MEL [3]: +
Transformed cells HL-60 [4]: +
Transformed cells HT-29 [5]: +

O=C(CCCCCNC(=O)Nc1cccc(Cl)c1)NO [3-Cl-UCHA]
HG cells, % (% of cells hemoglobinized) (MEL cells [2]): 32%
Opt. [ ], μM (Optimal concentration) (MEL cells [2]): 4.0 µM

O=C(CCCCCCC(=O)Nc1ccccc1)NO [SAHA, Suberoylanilide hydroxamic acid]
HG cells, % (% of cells hemoglobinized) (MEL cells [2]): 68%
Opt. [ ], μM (Optimal concentration) (MEL cells [2]): 2.5 µM

O=C(CCCCCCCCC(=O)NO)NO
Opt. [ ], μM (Optimal concentration) (Transformed cells): 10 to 60 µM
Transformed cells MEL [3]: +
Transformed cells HL-60 [4]: +
Transformed cells HT-29 [5]: +

CC(=O)NCCCCCCNC(C)=O [HMBA, hexamethylene bisacetamide]
differentiated (benzidine-positive) cells (MEL cells [6]): 35-45%
effect on Notch-1 expression pattern (Notch-1): causing an early increase in Notch-1 followed by a progressive decline
HG cells, % (% of cells hemoglobinized) (MEL cells [2]): 95%
Opt. [ ], μM (Optimal concentration) (MEL cells [2]): 5,000 μM
adverse effect of therapy [7]: can result in thrombocytopenia

rh11-12: human recombinant Notch-1 EGF-repeats 11 and 12, 6-Histidine tagged, expressed in E. coli
effect on differentiation of 3T3-L1 cells (3T3-L1 cells): blocked their differentiation

O=C(CCCCCCC(=O)NO)NO [SBHA]
HG cells, % (% of cells hemoglobinized) (MEL cells [2]): 94%
Opt. [ ], μM (Optimal concentration) (MEL cells [2]): 30 µM

CC(=O)O[C@H]1C(=O)[C@@]2(C)[C@H]([C@H](OC(=O)c3ccccc3)[C@]3(O)C[C@H](OC(=O)[C@H](O)[C@@H](NC(=O)c4ccccc4)c4ccccc4)C(C)=C1C3(C)C)[C@]1(OC(C)=O)CO[C@@H]1C[C@@H]2O [Paclitaxel]
cell survival, antineoplastic agent combined with Notch-1 antisense S-oligos (SY5Y cells): cell survival was decreased to a greater extent

O=C(/C=C/c1ccc(C(=O)NO)cc1)NO
Opt. [ ], μM (Optimal concentration) (Transformed cells): 10 to 60 µM
Transformed cells MEL [3]: +
Transformed cells HL-60 [4]: +
Transformed cells HT-29 [5]: +
